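All cell lines were grown in 96-well plates and treated with compound for 48 hours. TGI denotes the concentration required for complete inhibition of growth.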
Tests used:
Test in all cases: NCI tumour cell line growth inhibition, 48 h
[1] = test system: SR leukemia
[2] = test system: KM12 colon
[3] = test system: UACC-62 melanoma
[4] = test system: NCI-H23 lung
[5] = test system: SK-OV-3 ovarian
[6] = test system: K-562 leukemia
[7] = test system: A549 NSCLC
[8] = test system: NCI-H522 lung
[9] = test system: RPMI-8226 leukemia
[10] = test system: SK-MEL-5 melanoma
[11] = test system: SF-268 CNS
[12] = test system: OVCAR-3 ovarian
[13] = test system: XF 498 CNS
[14] = test system: MALME-3M melanoma
[15] = test system: DMS 114 small cell lung
[16] = test system: UACC-257 melanoma
[17] = test system: NCI-H226 lung
[18] = test system: IGROV1 ovarian
[19] = test system: SNB-19 CNS
[20] = test system: SK-MEL-2 melanoma
[21] = test system: SK-MEL-28 melanoma
[22] = test system: SF-539 CNS
[23] = test system: M14 melanoma
[24] = test system: CAKI-1 renal
[25] = test system: HOP-92 NSCLC
[26] = test system: HCT-116 colon
[27] = test system: OVCAR-4 ovarian
[28] = test system: COLO 205 colon
[29] = test system: HOP-18 NSCLC
[30] = test system: OVCAR-8 ovarian
[31] = test system: HOP-62 NSCLC
[32] = test system: DLD-1 colon
[33] = test system: LXFL 529 NSCLC
[34] = test system: SN12C renal
[35] = test system: EKVX NSCLC
[36] = test system: CCRF-CEM leukemia
[37] = test system: SNB-75 CNS
[38] = test system: M19-MEL melanoma
[39] = test system: TK-10 renal
[40] = test system: SF-295 CNS
[41] = test system: HL-60(TB) leukemia
[42] = test system: A498 renal
[43] = test system: KM20L2 colon
[44] = test system: OVCAR-5 ovarian
[45] = test system: UO-31 renal
[46] = test system: NCI-H460 lung
[47] = test system: RXF-631 renal
[48] = test system: MOLT-4 leukemia
[49] = test system: ACHN renal
[50] = test system: 786-0 renal
[51] = test system: U251 CNS
[52] = test system: SW-620 colon
[53] = test system: DMS 273 small cell lung
[54] = test system: HT29 colon
[55] = test system: RXF 393 renal
[56] = test system: LOX IMVI melanoma
[57] = test system: SNB-78 CNS
[58] = test system: HCC-2998 colon
[59] = test system: HCT-15 colon
[60] = test system: MCF7 breast
[61] = test system: P388 leukemia
[62] = test system: P388/ADR leukemia
[63] = test system: SN12K1 renal
[64] = test system: NCI/ADR-RES ovarian

CCCCCCC(C)CCCCCCCCCCC(=O)O (stereo not given)
TGI [1]: > 100 µM
TGI [2]: > 100 µM
TGI [3]: > 100 µM
TGI [4]: > 100 µM
TGI [5]: > 100 µM
TGI [6]: > 100 µM
TGI [7]: > 100 µM
TGI [8]: > 100 µM
TGI [9]: > 100 µM
TGI [10]: > 100 µM
TGI [11]: > 100 µM
TGI [12]: > 100 µM
TGI [13]: > 100 µM
TGI [14]: > 100 µM
TGI [15]: > 100 µM
TGI [16]: > 100 µM
TGI [17]: > 100 µM
TGI [18]: > 100 µM
TGI [19]: > 100 µM
TGI [20]: > 100 µM
TGI [21]: > 100 µM
TGI [22]: > 100 µM
TGI [23]: > 100 µM
TGI [24]: > 100 µM
TGI [25]: > 100 µM
TGI [26]: > 100 µM
TGI [27]: > 100 µM
TGI [28]: > 100 µM
TGI [29]: > 100 µM
TGI [30]: > 100 µM
TGI [31]: > 100 µM
TGI [32]: > 100 µM
TGI [33]: > 100 µM
TGI [34]: > 100 µM
TGI [35]: > 100 µM
TGI [36]: > 100 µM
TGI [37]: > 100 µM
TGI [38]: > 100 µM
TGI [39]: > 100 µM
TGI [40]: > 100 µM
TGI [41]: > 100 µM
TGI [42]: > 100 µM
TGI [43]: > 100 µM
TGI [44]: > 100 µM
TGI [45]: > 100 µM
TGI [46]: > 100 µM
TGI [47]: > 100 µM
TGI [48]: > 100 µM
TGI [49]: > 100 µM
TGI [50]: > 100 µM
TGI [51]: > 100 µM
TGI [52]: > 100 µM
TGI [53]: > 100 µM
TGI [54]: > 100 µM
TGI [55]: > 100 µM
TGI [56]: > 100 µM

COc1cc(CNc2nc3ccc(C(F)(F)F)cc3nc2-c2ccccc2)cc(OC)c1OC
TGI [2]: > 100 µM
TGI [3]: > 100 µM
TGI [4]: > 100 µM
TGI [5]: > 100 µM
TGI [6]: > 100 µM
TGI [7]: > 100 µM
TGI [8]: 55.7 µM
TGI [9]: > 100 µM
TGI [10]: 87 µM
TGI [11]: > 100 µM
TGI [12]: > 100 µM
TGI [13]: > 100 µM
TGI [14]: > 100 µM
TGI [16]: > 100 µM
TGI [18]: > 100 µM
TGI [19]: > 100 µM
TGI [20]: > 100 µM
TGI [21]: > 100 µM
TGI [22]: > 100 µM
TGI [23]: > 100 µM
TGI [24]: > 100 µM
TGI [26]: > 100 µM
TGI [27]: > 100 µM
TGI [28]: > 100 µM
TGI [30]: > 100 µM
TGI [31]: > 100 µM
TGI [32]: > 100 µM
TGI [33]: > 100 µM
TGI [34]: > 100 µM
TGI [57]: > 100 µM
TGI [35]: 59.6 µM
TGI [36]: > 100 µM
TGI [37]: 61.7 µM
TGI [38]: > 100 µM
TGI [39]: > 100 µM
TGI [40]: > 100 µM
TGI [58]: > 100 µM
TGI [41]: 55.9 µM
TGI [42]: > 100 µM
TGI [43]: > 100 µM
TGI [44]: > 100 µM
TGI [45]: 55.6 µM
TGI [46]: > 100 µM
TGI [47]: > 100 µM
TGI [48]: 56.8 µM
TGI [50]: > 100 µM
TGI [51]: > 100 µM
TGI [52]: > 100 µM
TGI [53]: > 100 µM
TGI [54]: > 100 µM
TGI [56]: > 100 µM
TGI [59]: > 100 µM

O=C(O)CCCCCCCCC(=O)O
TGI [2]: > 500 µM
TGI [3]: > 500 µM
TGI [4]: > 500 µM
TGI [5]: > 500 µM
TGI [6]: > 500 µM
TGI [7]: > 500 µM
TGI [8]: > 500 µM
TGI [9]: > 500 µM
TGI [10]: > 500 µM
TGI [11]: > 500 µM
TGI [12]: > 500 µM
TGI [13]: > 50 µM
TGI [14]: > 500 µM
TGI [15]: > 500 µM
TGI [16]: > 500 µM
TGI [17]: > 500 µM
TGI [18]: > 500 µM
TGI [19]: > 79.3 µM
TGI [20]: > 500 µM
TGI [21]: > 500 µM
TGI [22]: > 79.3 µM
TGI [24]: > 500 µM
TGI [25]: > 500 µM
TGI [26]: > 500 µM
TGI [27]: > 500 µM
TGI [28]: > 500 µM
TGI [29]: > 500 µM
TGI [30]: > 500 µM
TGI [60]: > 500 µM
TGI [31]: > 500 µM
TGI [32]: > 500 µM
TGI [34]: > 500 µM
TGI [57]: > 500 µM
TGI [35]: > 500 µM
TGI [36]: > 500 µM
TGI [37]: > 79.3 µM
TGI [38]: > 500 µM
TGI [40]: > 500 µM
TGI [58]: > 500 µM
TGI [41]: > 281 µM
TGI [42]: > 23.2 µM
TGI [43]: > 500 µM
TGI [61]: > 281 µM
TGI [44]: > 500 µM
TGI [45]: > 500 µM
TGI [46]: > 500 µM
TGI [62]: > 500 µM
TGI [48]: > 500 µM
TGI [63]: > 500 µM
TGI [51]: > 500 µM
TGI [52]: > 500 µM
TGI [53]: > 500 µM
TGI [54]: > 500 µM
TGI [55]: > 500 µM
TGI [64]: > 500 µM
TGI [56]: > 500 µM
TGI [59]: > 500 µM

Reference: PubChem BioAssay (NCI)
